Reference: patent US20230271943A1, “COMPOUNDS AS DHODH INHIBITORS” (Nanjing Zenshine Pharmaceuticals Co., Ltd., priority 2020, published 2023)

Columns and labels:
[1] = test system: A/PR/8/34 (H1N1) strain; assay: Antiviral CPE assay in MDCK cells, A/PR/8/34 (H1N1); format: cell-based; settings: Influenza A virus, 120 h, 5 days, CCK-8, read-out: Activity of anti-A/PR/8/34 (H1N1) EC50
[2] = in vitro; settings: dog
[3] = target: recombinant human DHODH (Homo sapiens, UniProt Q02127); assay: Biochemical enzymatic assay (DCIP bleaching); settings: DCIP absorbance 600 nm, 60 min RT
Protocol: The biochemical activity of DHODH was measured by the bleaching of the dye 2,6-dichlorophenolindophenol (DCIP) (Knecht W. et al., Biochem. Pharmacol. 1998, 56, 1259-1264). The assay was conducted in buffer containing 50 mM Tris, 150 mM KCI, and 0.1% Triton® X-100 (pH 8.0). 5 ng DHODH protein in 50 µL assay buffer was mixed in a well of 96-well clear assay plate (Corning Cat#3599) with 25 µL series concentration of inhibitor at room temperature for 30mins prior to adding 25 µL substrate solution (1 mM L-Dihydroorotic acid, 0.1 mM Decylubiquinone, 0.06 mM DCIP). After incubation at RT for 60mins, absorbance at 600 nm was obtained using a PerkinElmer multimode plate-reading spectrophotometer. Purified recombinant human DHODH was purchased from R&D systems (Catalog# 10062-DD-020), L-dihydroorotic acid (Sigma, D7128), decylubiquinone (Sigma, D7911), DCIP (Sigma, D1878) and other chemicals were purchased from Sigma-Aldrich.

[4] = test system: MV-4-11 cells; assay: MV-4-11 cell proliferation assay (CellTiter-Glo); format: cell-based; settings: Homo sapiens, MV4-11, 72 h, read-out: MV-4-11 Cell Proliferation Assay IC50
Protocol: 5000 cells/well of MV-4-11 cells were seeded in IMDM 10% fetal calf serum (FBS, BI, Catalog#) in 96-well plates. The next day, cells were incubated with different concentrations of test compounds for 72 h. Cellular viability was analyzed using CellTiter-Glo® Luminescent Cell Viability Assay (Promega, #G7570) according to manufacturer’s instructions.

[5] = test system: H7N9 strain; assay: microbe, parasite or virus in culture; format: cell-based; settings: Influenza A virus, H7N9, MDCK, 120 h, read-out: Anti-H7N9 EC50
[6] = test system: H1N1(XJ49) strain; assay: Antiviral CPE assay in MDCK cells, H1N1 (XJ49); format: cell-based; settings: Influenza A virus, H1N1, 120 h, 5 days, CCK-8, read-out: anti-H1N1 (XJ49) EC50
[7] = test system: ZIKV strain; assay: microbe, parasite or virus in culture; format: cell-based; settings: Zika virus, Vero, 72 h, read-out: Activity of anti-ZIKV EC50

Chain of recombinant human DHODH (Q02127 whole entry): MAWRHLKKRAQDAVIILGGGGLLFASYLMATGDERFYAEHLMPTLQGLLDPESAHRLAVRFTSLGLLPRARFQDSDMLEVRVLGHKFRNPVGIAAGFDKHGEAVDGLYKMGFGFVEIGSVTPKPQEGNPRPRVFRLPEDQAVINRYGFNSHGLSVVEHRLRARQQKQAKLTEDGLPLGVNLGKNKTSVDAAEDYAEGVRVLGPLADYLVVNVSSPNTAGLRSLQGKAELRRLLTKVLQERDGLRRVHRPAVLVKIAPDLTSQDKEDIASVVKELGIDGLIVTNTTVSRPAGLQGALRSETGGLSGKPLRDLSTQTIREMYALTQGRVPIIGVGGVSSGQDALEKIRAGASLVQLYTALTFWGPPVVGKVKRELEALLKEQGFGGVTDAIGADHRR

Structure (SMILES)	EC50 [1]	CC50 [2]	IC50 [3]	IC50 [4]	EC50 [5]	EC50 [6]	EC50 [7]
O=C1c2c(O)c(=O)ccn2N([C@@H]2c3ccccc3SCc3c2ccc(F)c3F)[C@@H]2COCCN12 [Baloxavir, reference compound]	1.1 nM	18 nM					
CCn1c(CO)nn(-c2cc3c(C(C)C)nn(-c4c(F)cccc4Cl)c(=O)c3cc2F)c1=O [Compound 4, 2-(2-chloro-6-fluorophenyl)-6-(4-ethyl-3-(hydroxymethyl)-5-oxo-4,5-dihydro-1H-1,2,4-triazol-1-yl)-7-fluoro-4-isopropylphthalazin-1(2H)-one]	23 nM	> 1000 nM	11 nM	0.9 nM	14 nM	5.7 nM	0.37 nM
CCn1c(CO)nn(-c2cc3c(cc2F)c(=O)c(-c2c(F)cccc2Cl)nn3C(C)C(F)(F)F)c1=O (stereo not shown) [Compound 1, 3-(2-chloro-6-fluorophenyl)-7-(4-ethyl-3-(hydroxymethyl)-5-oxo-4,5-dihydro-1H-1,2,4-triazol-1-yl)-6-fluoro-1-(1,1,1-trifluoropropan-2-yl)cinnolin-4(1H)-one]			215 nM				
CCC(CC)O[C@@H]1C=C(C(=O)O)C[C@H](N)[C@H]1NC(C)=O [Oseltamivir acid, reference compound]	[…]	> 100 nM					
CCn1c(CO)nn(-c2cc3c(cc2F)c(=O)c(-c2c(F)cccc2Cl)nn3C(C)C)c1=O [Compound 2, 3-(2-chloro-6-fluorophenyl)-7-(4-ethyl-3-(hydroxymethyl)-5-oxo-4,5-dihydro-1H-1,2,4-triazol-1-yl)-6-fluoro-1-isopropylcinnolin-4(1H)-one]	64 nM	> 1000 nM	97 nM	0.09 nM			
